Among the data in PubChem BioAssay (NCI) are TGI and GI50 values, retold here.

What all share (assay): inhibition of tumour cell growth, NCI panel, 48 h
The subject of assay [1] is MCF7 breast.
The subject of assay [2] is SK-MEL-5 melanoma.
Assay [3] concerns NCI-H522 lung.
In assay [4] the test system is SW-620 colon.
In assay [5] the test system is HL-60(TB) leukemia.

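Five concentrations, 48 hours, 96-well plates. GI50: concentration for 50% inhibition of growth. TGI is the concentration that stops growth completely.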 Where a SMILES comes first, the peptide text is derived from it. The star is where a group is joined. Boc = CC(C)(C)OC(=O)*; OtBu = CC(C)(C)O*

Take `CC(C)c1cc(C(C)C)c(S(=O)(=O)N/N=C2\CC3CCC2(C)C3(C)C)c(C(C)C)c1` (stereo not drawn): the TGI in assay [1] is 30.7 µM; in assay [2], 30.5 µM; in assay [3] it was 36.8 µM; in assay [4] it was over 100 µM.

For the compound `COc1ccc(CCN2C(=O)C(=O)C(C(=O)c3ccccc3)C2c2ccccc2)cc1OC` (stereo not drawn), the TGI in assay [1], in assay [2], in assay [5], in assay [3] and in assay [4] was over 100 µM each time.

Consider `Nc1ccc(Oc2ccc(C3(c4ccc(Oc5ccc(N)c(O)c5)cc4)C4CC5CC(C4)CC3C5)cc2)cc1O`, for which the TGI is 3.02 µM in assay [2], 5.3 µM in assay [5] and 3.06 µM in assay [3].

In the case of `COc1cccc(O)c1-c1cc(=O)c2c(O)c(OC)c(OC)c(OC)c2o1`, the TGI in assay [1] is 77.7 µM; in assay [2], 39.4 µM; in assay [5], 46.7 µM; in assay [3] it was 87.9 µM; in assay [4], over 100 µM.

As to `O[C@@H]1CCCCN1Cc1cc2cc3c(cc2c2cc(OCc4ccccc4)ccc12)OCO3`, the GI50 is 1.33 µM in assay [1]; 1.62 µM in assay [2]; 1.5 µM in assay [5]; 1.49 µM in assay [3]; 1.17 µM in assay [4]. Besides, the TGI is 2.73 µM in assay [1]; 3.09 µM in assay [2]; 3.57 µM in assay [5]; 2.91 µM in assay [3]; 2.7 µM in assay [4].

In the case of `COC(=O)[C@]1(CCC(C)=O)C(=O)C=CN([C@H](C)c2ccccc2)[C@@H]1Cc1ccc(OC)c(OCc2ccccc2)c1I`, the TGI in assay [1] was 46.2 µM; in assay [2], 26.9 µM; in assay [5], 69.8 µM; in assay [3], 41.6 µM; in assay [4] it was over 100 µM.

In turn, `COC(=O)C#CC1(O)C=CC(=O)C=C1` registered a TGI in assay [3] of 0.552 µM.

Regarding `Cc1nnc(NS(=O)(=O)c2ccc(N=Nc3c(O)c(C(=O)O)cc4ccccc34)cc2)s1`, the TGI in assay [1], in assay [2], in assay [5], in assay [3] and in assay [4] was over 100 µM in each case.

With `CCOC(=O)c1sc(N)nc1N1CCCC1`, the TGI in assay [1], in assay [2], in assay [5], in assay [3] and in assay [4] was over 100 µM throughout.

With `CC(C)(C)OC(=O)CC(NC(=O)OC(C)(C)C)C(=O)NC(Cc1ccccc1)C(N)=O` (stereo not drawn) (Boc-Asp(OtBu)-Phe-NH2; configuration not given here), the TGI in assay [1], in assay [2], in assay [3] and in assay [4] was over 100 µM throughout.

Regarding `COC(=O)c1c(C(=O)OC)c2ccccn2c1-c1cc(C)cc2c1C(=O)C=CC2=O`, the TGI in assay [2] turned out to be 17 µM; in assay [5], 5.04 µM; in assay [4] it was 8.21 µM.

Consider `CC(=O)OC1=C(c2ccccc2)S(=O)(=O)c2ccccc21`, for which the TGI in assay [1], in assay [2], in assay [5], in assay [3] and in assay [4] was over 100 µM throughout.

On to `C[C@H]1CC(=O)C[C@@H]2CC[C@@H]3[C@H](CC[C@]4(C)C(OC(=O)c5cccc6c(=O)c7ccccc7[nH]c56)CC[C@@H]34)[C@]21C` (stereo partly drawn), for which the TGI in assay [1] was over 100 µM; in assay [2], 40.3 µM; in assay [5] it was 36.5 µM; in assay [3], 72.8 µM; in assay [4] it was over 100 µM.

For the compound `CC(=O)O[C@H]1CC[C@@]2(C)C(=CC[C@@H]3[C@@H]2CC[C@]2(C)C(=O)/C(=C\c4ccccc4)C[C@@H]32)C1`, the TGI in assay [1], in assay [2], in assay [3] and in assay [4] was over 100 µM in each case.

For `CCOC(=O)n1c(=O)nc2c3c(ncn21)Oc1c(c(-c2ccccc2)nn1-c1ccccc1)C3c1ccc(Cl)cc1` (stereo not drawn), the TGI in assay [1] is 2.9 µM; in assay [2], 3.07 µM; in assay [5], 2.78 µM; in assay [3], 3.11 µM; in assay [4], 3.09 µM.

Turning to `NC(C(=O)O)C(O)c1cnc[nH]1` (stereo not drawn), the TGI in assay [1], in assay [2], in assay [5], in assay [3] and in assay [4] was over 100 µM each time.

Consider `CC(=O)OCC1OC(Sc2nc(-c3ccccc3)c(C#N)c(=O)n2C2OC(COC(C)=O)C(OC(C)=O)C(OC(C)=O)C2OC(C)=O)C(OC(C)=O)C(OC(C)=O)C1OC(C)=O` (stereo not drawn), for which the TGI in assay [1], in assay [2], in assay [3] and in assay [4] was over 100 µM each time.

For `C[C@@H](NC(=O)Nc1cccc(C(=O)Nc2cc(C(C)(C)C)ccc2C(=O)O)n1)c1ccccc1`, the TGI in assay [1] is 47.9 µM; in assay [2], over 100 µM; in assay [5], over 100 µM; in assay [3], over 100 µM; in assay [4] it was over 100 µM.

On to `COc1ccc2c(c1)SC1=Nc3sc4cc(OC)ccc4[n+]3CN12`, for which the TGI in assay [1] is 31.4 µM; in assay [2] it was 15.6 µM; in assay [5], 63.5 µM; in assay [3], 8.5 µM; in assay [4], over 100 µM.

Take `O=C(O)c1ccc2nc(-c3ccccn3)c(-c3ccccn3)nc2c1`: the TGI in assay [1], in assay [2], in assay [5] and in assay [4] was over 100 µM in each case.

With `CN(C)CCC(C#N)(c1ccccc1)c1ccccc1`, the TGI in assay [1] is over 100 µM; in assay [2] it was 51.1 µM; in assay [5], 65.3 µM; in assay [3] it was over 100 µM; in assay [4], over 100 µM.

Take `COCc1nc(C#N)c(N)o1`: the TGI in assay [1], in assay [2], in assay [5], in assay [3] and in assay [4] was over 10 µM in each case.

For the compound `O=C(NNC(=O)c1cc2ccccc2[nH]1)c1cc2ccccc2[nH]1`, the TGI in assay [1], in assay [2], in assay [5], in assay [3] and in assay [4] was over 100 µM throughout.

For `N#CC(C#N)=CNC(=S)Nc1ccc(S(=O)(=O)Nc2nccs2)cc1`, the TGI in assay [1], in assay [2], in assay [5] and in assay [4] was over 100 µM in each case.

Turning to `COc1nc2c(c(=O)[nH]1)N=C(c1ccc([N+](=O)[O-])cc1)CC(c1ccccc1)N2` (stereo not drawn), the TGI in assay [1] is over 100 µM; in assay [2], over 100 µM; in assay [5], 46.6 µM; in assay [3], over 100 µM; in assay [4] it was over 100 µM.

In the case of `COc1cc(OC)cc(Oc2nc3ccc(C(F)(F)F)cc3nc2-c2ccccc2)c1`, the TGI in assay [1], in assay [2], in assay [5], in assay [3] and in assay [4] was over 100 µM in each case.

Turning to `O=[N+]([O-])c1ccc(-c2ccc([C@H]3CC(c4cc(F)c(Cl)cc4Cl)=NN3)o2)cc1`, the TGI was over 100 µM in assay [1]; 32.2 µM in assay [2]; 16.2 µM in assay [5]; over 100 µM in assay [3]; over 100 µM in assay [4].

`O=[N+]([O-])C1=Cc2c(O)ccc(O)c2C2c3ccccc3NC12` (stereo not drawn): the TGI was 11.8 µM in assay [1]; 27.6 µM in assay [2]; over 21 µM in assay [5]; 5.48 µM in assay [3]; over 47.1 µM in assay [4].

As to `CC(C)C1CC(CO)(CNc2nc(N)nc(Cl)c2C=O)C1` (stereo not drawn), the TGI is over 100 µM in assay [1], 3.92 µM in assay [5], 1.14 µM in assay [3] and 21.8 µM in assay [4].

As for `CCc1c(N=[N+]=[N-])c2ccccc2oc1=O`, the TGI in assay [1], in assay [5], in assay [3] and in assay [4] was over 100 µM in each case.

Regarding `CC(=O)OCC1OC(NC(=S)Nn2c(-c3ccccc3)nc3ccccc3c2=O)C(OC(C)=O)C(OC(C)=O)C1OC(C)=O` (stereo not drawn), the TGI in assay [1], in assay [2], in assay [5], in assay [3] and in assay [4] was over 100 µM in each case.

Regarding `COc1cc(N(CCC#N)CCC#N)ccc1/C(N=Nc1cccc([N+](=O)[O-])c1)=N\NC(=O)c1ccc(C)cc1`, the TGI in assay [1] was over 100 µM; in assay [2] it was over 100 µM; in assay [5], 49.1 µM; in assay [3] it was over 100 µM; in assay [4] it was over 100 µM.

In the case of `COc1cc(CCNC2=CC(=O)c3ncccc3C2=O)ccc1O`, the TGI is 6.06 µM in assay [1]; 1.84 µM in assay [2]; over 26.9 µM in assay [5]; 10.3 µM in assay [3]; 12.1 µM in assay [4].

As for `O=c1cc(O)c1=O`, the TGI in assay [1], in assay [2], in assay [5], in assay [3] and in assay [4] was over 100 µM in each case.

Regarding `COc1ccc(CC(COS(=O)(=O)c2ccc(C)cc2)NS(=O)(=O)c2ccc(C)cc2)cc1` (stereo not drawn), the TGI was over 69.7 µM in assay [1], 24.6 µM in assay [2], 22.9 µM in assay [3] and 27 µM in assay [4].

For `CCOC(=O)c1c2ccccc2n2c(=O)n(-c3ccccc3)nnc12`, the TGI in assay [1] is over 100 µM; in assay [2], 41.7 µM; in assay [5] it was over 100 µM; in assay [4], over 100 µM.

Consider `C/C(=C/C(=O)N(C)c1ccccc1Cl)O[Si](C(C)C)(C(C)C)C(C)C`, for which the figures for the TGI in assay [2], in assay [3] and in assay [4] were 30.8 µM, 31.8 µM and 38.9 µM, respectively.

On to `O=c1[nH]c2ccccc2c(=O)c2cc3ccccc3cc12`, for which the TGI in assay [1] was over 100 µM; in assay [2] it was over 100 µM; in assay [5] it was over 100 µM; in assay [3], 25.8 µM; in assay [4], over 100 µM.

Regarding `CN(C)CCCCN1c2ccccc2Sc2ccc(N=[N+]=[N-])cc21`, the TGI in assay [1] amounted to 5.26 µM; in assay [2] it was 3.04 µM; in assay [5] it was 4.3 µM; in assay [3] it was 14.1 µM; in assay [4], 16.8 µM.

As to `CCOc1cc(NC(C)=O)ccc1C(=O)NN1C(=O)/C(=C/c2ccc(Cl)cc2)N=C1c1ccccc1`, the TGI in assay [1] is over 100 µM; in assay [2], 81.3 µM; in assay [5], 89.6 µM; in assay [4] it was over 100 µM.

Take `O=C(c1ccccc1)N1N=C(C(F)(F)F)CC1(O)C(F)(F)F` (stereo not drawn): the TGI in assay [1], in assay [5], in assay [3] and in assay [4] was over 100 µM throughout.

On to `NCCCc1nonc1C(=O)O`, for which the TGI in assay [1], in assay [2], in assay [5] and in assay [4] was over 100 µM in each case.

For `CC(=O)OC(C(=O)NNC(=O)OC(C)(C)C)c1ccccc1` (stereo not drawn), the TGI in assay [1], in assay [2], in assay [3] and in assay [4] was over 100 µM throughout.

For `Cc1c(CNc2ccc(Cl)c(Cl)c2Cl)cnc2nc(N)nc(N)c12`, the TGI was over 46.7 µM in assay [1], 15.3 µM in assay [5], over 45.2 µM in assay [3] and over 70.1 µM in assay [4].

Regarding `CC1=C(C(N)=O)C(c2ccncc2)C(C#N)C(=O)N1` (stereo not drawn), the TGI in assay [1], in assay [2], in assay [5] and in assay [4] was over 100 µM throughout.

On to `Cc1c(S(=O)(=O)/N=C(\NO)Nc2ccc(Cl)cc2)sc2ccc(Cl)cc12`, for which the TGI came out at 27.4 µM in assay [2], 47.3 µM in assay [5], 22.7 µM in assay [3] and 63.1 µM in assay [4].

Take `COC(=O)[C@@H](N1C(=O)c2ccccc2C1=O)C1(C)CC(Cl)=NO1` (stereo partly drawn): the TGI was over 100 µM in assay [1], over 100 µM in assay [2], 79.1 µM in assay [3] and over 100 µM in assay [4].

As to `CC12CCC(C(=Nc3ccc([N+](=O)[O-])cc3)C1=O)C2(C)C` (stereo not drawn), the TGI in assay [1] was over 100 µM; in assay [2], 90.7 µM; in assay [4] it was 98.4 µM.

Take `CCOC(=O)c1nc2ccccc2nc1Oc1ccc(F)cc1`: the TGI in assay [1], in assay [2] and in assay [4] was over 100 µM throughout.
